The text below walks through data of patent US11065227B2, “Use of cannabinoids in the treatment of multiple myeloma” (GW Research Limited, priority 2016, dated 2021).

Data set [1] relates to U266 cell line. Description: MTT cell viability assay, U266. The conditions noted are these: Homo sapiens. On the procedure: (§1) U266 and RPM18226 (RPMI) MM cell lines were purchased from ATCC (LGC Standards, Milan, IT). Cell authentication was performed by IST (Genova, Italy). Cell lines were cultured in RPMI1640 medium (Lonza, Milan, IT) supplemented with 10% foetal bovine serum (FBS), 2 mM L-glutamine, 100 IU/ml penicillin, 100 μg/ml streptomycin and 1 mM sodium pyruvate. Cell lines were maintained at 37° C. with 5% CO2 and 95% humidity.
(§2) U266 and RPMI cell lines (4×10^4 cells/ml) were seeded in 96-well plates, in a final volume of 100 μl/well. After 1 day of incubation, compounds or vehicles were added. At least four replicates were used for each treatment.
(§3) At the indicated time point, cell viability was assessed by adding 0.8 mg/ml of 3-[4,5-dimethylthiazol-2-yl]-2,5 diphenyl tetrazolium bromide (MTT) (Sigma Aldrich) to the media. […]
(§4) The absorbance of the samples against a background control (medium alone) was measured at 570 nm using an ELISA reader microliter plate (BioTek Instruments, Winooski, Vt., USA). Synergistic activity of the THC-CBD combinations was determined by the isobologram and combination index (CI) methods (CompuSyn Software, ComboSyn, Inc. Paramus, N J 2007). The CI was used to express synergism (CI<1), additivity (CI=1) or antagonism (CI>1) and was calculated according to the standard isobologram equation (Chou, 2006).
(In general: Formazan colour is commonly taken as a measure of viable cells.)

The test system of data set [2] is RPMI cell line. Description: MTT cell viability assay, RPMI. Here is the method:
as §1, §2, §3, §4

Data set [3] relates to U266 and RPMI cell lines. Nature of the data set: MTT cell viability assay, statements for both MM cell lines. The conditions noted are these: for CB2 receptor dependence of cytotoxic effect: pre-treatment with 20 μM AM630 (CB2 antagonist), FIG. 2. Here is the method:
as §1, §2
At the indicated time point, cell viability was assessed by adding 0.8 mg/ml of 3-[4,5-dimethylthiazol-2-yl]-2,5 diphenyl tetrazolium bromide (MTT) (Sigma Aldrich) to the media. After 3 h, the plates were centrifuged, the supernatant was removed, and the pellet was solubilized with 100 μl/well DMSO.
as §4

Data set [4] concerns LC3-II/LC3-1 and p62 in U266 and RPMI cell lines. Nature of the data set: Western blot of autophagy markers LC3 and p62. Format: cell-based. The following applies: 12.5 μM; 24 h of treatment; FIG. 4A. On the procedure: (§5) U266 and RPMI cell lines were lysed in buffer containing protease inhibitor cocktail (Sigma Aldrich). Lysates were resolved by sodium dodecyl sulphate polyacrylamide gel (8-14%) and transferred onto Hybond-C extra membranes (GE Healthcare, Munich, Germany). Non-specific binding sites were blocked with 5% low-fat dry milk in phosphate-buffered saline 0.1% Tween 20 for 1 h.
(§6) Blots were incubated with the primary Abs: anti-iβ5 subunit (1:1000, Cell Signalling, Denver, Colo., USA), rabbit anti-LC3 (2 μg/ml, Novus Biologicals, Littleton, Colo., USA), rabbit anti-caspase-3 (1:1000, Cell Signalling), rabbit anti-p62 (1:1000, Cell Signalling), rabbit anti-H2AX (1:1000, Cell Signalling) and mouse anti-glyceraldehydes-3-phosphate dehydrogenase (GAPDH, 1:3000, OriGene, Rockville, Md., USA) Abs overnight and then incubated with their respective HRP-conjugated anti-mouse and anti-rabbit (1:2000, Cell Signalling) Abs for 1 h. The detection was performed using the LiteAblot PLUS or the LiteAblot TURBO (EuroClone, Milano, Italy) kits, and densitometric analysis was carried out by a Chemidoc using the Quantity One software (Bio-Rad, Hercules, Calif., USA).
These experiments investigated if the increase in sub-G1 cell accumulation by THC-CBD combination treatment was due to an autophagic-cell death process. […]
(In general: A western blot detects proteins with antibodies after separation by electrophoresis.)

The test system of data set [5] is γ-H2AX (H2AX) in U266 and RPMI cell lines. Description: Western blot of γ-H2AX. The following applies: 24 h post-treatments; both cell lines; FIG. 5C. Format: cell-based. Here is the method:
as §5, §6
The presence of γ-H2AX (H2AX), a phosphorylated variant of histone 2A that is associated with DNA double-strand breaks was investigated.

In data set [6] the test system is β5i subunit in U266 and RPMI cell lines. Description: β5i mRNA by qRT-PCR after IFN-γ. The following applies: after 24 h IFN-γ (100 U/ml); 12.5 μM; respect to IFN-γ alone; FIG. 6A. Format: cell-based. For orientation: Real-time PCR tracks product formation cycle by cycle.
Data set [7] has the same test system. Nature of the data set: β5i precursor and mature form by western blot after IFN-γ. Format: cell-based. The conditions noted are these: both cell lines, FIG. 6B. On the procedure:
as §5, §6
The potential role of the combination of THC-CBD in regulating the β5i subunit was investigated. U266 and RPMI cell lines were treated with CBD and THC, after 24 h exposure to IFN-γ (100 U/ml).

Data set [8] concerns CXCR4 and CD147 in U266 and RPMI cell lines. Description: CXCR4 and CD147 expression by qRT-PCR. Format: cell-based. The following applies: alone and in combination; qRT-PCR and FACS; MM cell lines.
The subject of data set [9] is U266 and RPMI cell lines. Description: Cell migration assay (SDF-1, eCyPA chemotaxis). In kind it is cell-based. The following applies: 24 h treatment; single and in combination; FIG. 8C.
Data set [10] has as its system U266 cell line. The conditions noted are these: Morelli et al. 2014, read-out: IC50, reducing cell viability; cited from earlier work.
For data set [11], the system named is RPMI cell line. The following applies: Morelli et al. 2014, read-out: IC50, reducing cell viability; cited from earlier work.
In another data set the test system is U266. The conditions noted are these: Morelli et al. 2014; cited from earlier work.
A further data set has as its system RPMI. The following applies: Morelli et al. 2014; cited from earlier work.
In data set [12] the test system is U266 and RPMI cell lines. Nature of the data set: Cell cycle analysis by PI staining and FACS, both MM cell lines. Format: cell-based. The following applies: 12.5 μM, vs control, FIG. 3.

Broadly, the IC50 is the concentration that gives 50% inhibition.

Where two headings read alike, the source gives them in different places.

Turning to `C=C(C)[C@@H]1CCC(C)=C[C@H]1c1c(O)cc(CCCCC)cc1O` [CBD, Cannabidiol], the cytotoxicity at 12.5 µM in the data set on U266 cell line [1] (U-266, read-out: decrease in cell viability) worked out at 20%; in the data set on RPMI cell line [2] (read-out: decrease in cell viability) it was 20%. Moreover, in the data set on U266 and RPMI cell lines [3], the “cytotoxic effects after pre-treatment with BAF1” value is on record as “reversed”. In the data set with U266 and RPMI cell lines [3], the “CB2 receptor dependence of cytotoxic effect” value is “not CB2 receptors dependent”. Further, in data set [4], the LC3-II/LC3-1 ratio result is reported as “slight increase”. In data set [5], the “levels of the phosphorylated form of H2AX” value was “increase levels”. Further, the “β5i expression level (mRNA) induced by IFN-γ” value in [6] is on record as “low effects”. In addition, the “expression of precursor and mature form of β5i (protein)” value in data set [7] is on record as “low efficacy”. In [8], the “expression of CXCR4 and CD147 chemotactic receptors” value is reported as “reduce the expression”. Besides, in the data set with U266 and RPMI cell lines [9], the “SDF-1-, eCyPA- and SDF-1/eCyPA-mediated chemotaxis compared with vehicle-treated cells” value is on record as “reduced”. Moreover, the IC50 is 19.8 µM in the data set on U266 cell line [10] and 22.4 µM in the data set with RPMI cell line [11]. The “blocking cell cycle in GO/G1 phase” value is 38% with U266 and 42% with RPMI.
Consider `CC(C)C[C@H](NC(=O)[C@H](CCc1ccccc1)NC(=O)CN1CCOCC1)C(=O)N[C@@H](Cc1ccccc1)C(=O)N[C@@H](CC(C)C)C(=O)[C@@]1(C)CO1` [CFZ, carfilzomib], for which the cell viability entry with U266 and RPMI cell lines [3] (presence or absence of IFN-γ, 72 h post-treatment, data not shown) was “reduced cell viability”. The “expression of CXCR4 and CD147 chemotactic receptors” value in [8] is given as “reduce the expression”. Besides, in the data set with U266 and RPMI cell lines [9], the “SDF-1-, eCyPA- and SDF-1/eCyPA-mediated chemotaxis compared with vehicle-treated cells” value was “reduced”.
With `CCCCCc1cc(O)c2c(c1)OC(C)(C)[C@@H]1CCC(C)=C[C@@H]21` [THC, Tetrahydrocannabinol], the IC50 in the data set with U266 cell line [1] (U-266, 72 h, read-out: IC50, cell viability) stood at 39.5 µM; in the data set with RPMI cell line [2] (72 h, read-out: IC50, cell viability), 30.8 µM. The “CB2 receptor dependence of cytotoxic effect” value in the data set with U266 and RPMI cell lines [3] is on record as “not CB2 receptors dependent”. In the data set with U266 and RPMI cell lines [12] (48 h post-treatment), the “accumulation in sub-G1 phase (hypodiploid DNA)” value is recorded as “accumulation in sub-G1 phase”. Further, in the data set on U266 and RPMI cell lines [12] (starting from 24 h post-treatment), the “cell accumulation in G1 phase” value is “induce cell accumulation in G1 phase”. For the same compound, the LC3-II/LC3-1 ratio entry in data set [4] is listed as “no effect”. Besides, in data set [5], the “levels of the phosphorylated form of H2AX” value is “increase levels”. Further, in [6], the “β5i expression level (mRNA) induced by IFN-γ” value is recorded as “low effects”. The “expression of precursor and mature form of β5i (protein)” value in data set [7] was “low efficacy”. In addition, the “expression of CXCR4 and CD147 chemotactic receptors” value in data set [8] was “reduce the expression”. Besides, the “SDF-1-, eCyPA- and SDF-1/eCyPA-mediated chemotaxis compared with vehicle-treated cells” value in the data set with U266 and RPMI cell lines [9] was “reduced”.
